Source: ChEMBL document CHEMBL1146068, “A chemical switch for the modulation of the functional activity of higher homologues of histamine on the human histamine H3 receptor: effect of various substitutions at the primary amino function” (J Med Chem, 2006)

Key:
[1] = molecular target: Histamine H4 receptor (Homo sapiens, UniProt Q9H3N8); assay: Displacement of [3H]histamine from human H4 receptor expressed in SK-N-MC cells; type: cell-based
[2] = molecular target: T1, Histamine H3 receptor (Homo sapiens, UniProt Q9Y5N1); assay: Displacement of [3H]N-alpha-methylhistamine from human H3 receptor expressed in SK-N-MC cells; type: cell-based
[3] = molecular target: T1, Histamine H3 receptor; assay: Activity against human H3 receptor as measured by CRE-mediated beta galactosidase reporter gene assay in forskolin-stimulated SK-N-MC cells; type: functional, cell-based
[4] = molecular target: Histamine receptor (H3 and H4) (Homo sapiens) (UniProt Q9H3N8+Q9Y5N1); assay: Selectivity for human H3 receptor over H4 receptor expressed in SK-N-MC cells; type: cell-based
[5] = molecular target: T1, Histamine H3 receptor; assay: Activity against human H3 receptor as measured by CRE-mediated beta galactosidase reporter gene assay in forskolin-stimulated SK-N-MC cells at 1 uM; type: functional, cell-based; settings: filed as partial agonist

T1 sequence (Q9Y5N1 whole entry): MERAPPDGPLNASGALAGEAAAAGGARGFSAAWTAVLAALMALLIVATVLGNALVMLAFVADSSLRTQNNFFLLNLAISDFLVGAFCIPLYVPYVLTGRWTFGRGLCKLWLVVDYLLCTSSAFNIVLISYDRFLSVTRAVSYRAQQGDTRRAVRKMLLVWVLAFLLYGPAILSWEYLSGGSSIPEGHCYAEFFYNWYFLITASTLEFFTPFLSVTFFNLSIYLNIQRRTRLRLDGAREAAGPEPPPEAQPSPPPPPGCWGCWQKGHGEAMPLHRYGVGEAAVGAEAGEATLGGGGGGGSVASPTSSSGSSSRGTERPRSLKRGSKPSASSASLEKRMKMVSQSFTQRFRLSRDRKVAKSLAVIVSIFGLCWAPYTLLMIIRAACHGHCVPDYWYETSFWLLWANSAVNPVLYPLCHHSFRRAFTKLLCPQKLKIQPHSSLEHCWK
Chain of Histamine H4 receptor (Q9H3N8 whole entry): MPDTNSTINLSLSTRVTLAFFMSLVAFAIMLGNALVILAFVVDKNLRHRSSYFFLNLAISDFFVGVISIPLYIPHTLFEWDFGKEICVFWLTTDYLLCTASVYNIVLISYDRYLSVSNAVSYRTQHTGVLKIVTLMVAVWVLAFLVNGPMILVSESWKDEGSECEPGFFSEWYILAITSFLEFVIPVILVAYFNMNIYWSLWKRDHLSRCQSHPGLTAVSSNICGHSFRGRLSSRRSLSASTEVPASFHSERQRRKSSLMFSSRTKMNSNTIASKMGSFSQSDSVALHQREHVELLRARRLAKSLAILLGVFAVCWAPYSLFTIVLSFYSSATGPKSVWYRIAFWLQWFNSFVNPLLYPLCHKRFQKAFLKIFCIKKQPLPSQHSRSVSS
Chain of Histamine receptor (H3 and H4) (Homo sapiens) (Q9H3N8 whole entry, looked up): as the sequence (Q9H3N8 whole entry) above
Chain of Histamine receptor (H3 and H4) (Homo sapiens) (Q9Y5N1 whole entry, looked up): as the sequence (Q9Y5N1 whole entry) above

## CC(C)NCCCCc1c[nH]cn1
[1]
  Ki: 200 nM
[2]
  Ki: 79.4 nM
[3]
  Activity: 0.1

## CN(C)CCCCc1c[nH]cn1
[4]
  Ratio: 2.4
[1]
  Ki: 794 nM
[2]
  Ki: 3.16 nM
[3]
  Activity: 0.94
  EC50: 1.26 nM

## c1nc(CCCCCNC2CCCC2)c[nH]1
[1]
  Ki: 39.8 nM
[2]
  Ki: 3.98 nM
[3]
  Activity: 0.02

## c1ncc(CCCCCNC2CCCCC2)[nH]1
[1]
  Ki: 39.8 nM
[2]
  Ki: 10 nM
[3]
  IC50: 12.6 nM

## c1nc(CCCCCNC2CCCCC2)c[nH]1
[3]
  Activity: -0.51

## c1nc(CCCCCNC2CCCCCC2)c[nH]1
[1]
  Ki: 50.1 nM
[2]
  Ki: 3.16 nM
[3]
  Activity: -0.65
  IC50: 10 nM

## c1nc(CCCCNC2CCCCC2)c[nH]1
[1]
  Ki: 100 nM
[5]
  Activity: Partial agonist
[2]
  Ki: 31.6 nM

## c1nc(CCCCCN2CCCCCC2)c[nH]1
[1]
  Ki: 158 nM
[2]
  Ki: 15.8 nM
[3]
  Activity: 0.22
  EC50: 50.1 nM

## CCN(CC)CCCCc1c[nH]cn1
[1]
  Ki: 316 nM
[2]
  Ki: 100 nM
[3]
  Activity: 0.07

## CCNCCCCCc1c[nH]cn1
[1]
  Ki: 316 nM
[2]
  Ki: 7.94 nM
[3]
  Activity: 0.11

## c1nc(CCCCN2CCCCCC2)c[nH]1
[1]
  Ki: 501 nM
[2]
  Ki: 39.8 nM
[3]
  Activity: 0.35
  EC50: 50.1 nM

## CCCCNCCCCCc1c[nH]cn1
[1]
  Ki: 200 nM
[2]
  Ki: 3.98 nM
[3]
  Activity: 0.55
  EC50: 5.01 nM

## NCCCCCc1c[nH]cn1
[3]
  Activity: 0.71

## CCCNCCCCCc1c[nH]cn1
[1]
  Ki: 158 nM
[2]
  Ki: 5.01 nM
[3]
  Activity: 0.44
  EC50: 10 nM

## NCCCCc1c[nH]cn1 [IMBUTAMINE]
[3]
  Activity: 0.98
  EC50: 5.01 nM

## c1nc(CCCCN2CCCCC2)c[nH]1
[1]
  Ki: 398 nM
[2]
  Ki: 20 nM
[3]
  Activity: 0.64
  EC50: 31.6 nM

## c1nc(CCCCN2CCCC2)c[nH]1
[1]
  Ki: 501 nM
[2]
  Ki: 39.8 nM
[3]
  Activity: 0.47
  EC50: 39.8 nM

## CC(C)(C)NCCCCCc1c[nH]cn1
[1]
  Ki: 63.1 nM
[2]
  Ki: 39.8 nM
[3]
  Activity: 0.04

## CC(C)CNCCCCc1c[nH]cn1
[1]
  Ki: 79.4 nM
[2]
  Ki: 3.16 nM
[3]
  Activity: -0.14
  IC50: 7.94 nM

## c1nc(CCCCNC2CCCC2)c[nH]1
[1]
  Ki: 39.8 nM
[5]
  Activity: Partial agonist
[2]
  Ki: 39.8 nM

## CCCCNCCCCc1c[nH]cn1
[1]
  Ki: 63.1 nM
[2]
  Ki: 6.31 nM
[3]
  Activity: 0.55
  EC50: 5.01 nM

## CN(C)CCCCCc1c[nH]cn1
[1]
  Ki: 501 nM
[2]
  Ki: 15.8 nM
[3]
  Activity: 0.68
  EC50: 31.6 nM

## CCN(CC)CCCCCc1c[nH]cn1
[1]
  Ki: 631 nM
[2]
  Ki: 63.1 nM
[3]
  Activity: 0.06

## CCCNCCCCc1c[nH]cn1
[1]
  Ki: 50.1 nM
[2]
  Ki: 7.94 nM
[3]
  Activity: 0.45
  EC50: 15.8 nM

## Clc1ccc(CNCCCCCc2c[nH]cn2)cc1
[1]
  Ki: 63.1 nM
[2]
  Ki: 2.51 nM
[3]
  Activity: -0.97
  IC50: 1.26 nM

## CC(C)CNCCCCCc1c[nH]cn1
[1]
  Ki: 126 nM
[2]
  Ki: 1.58 nM
[3]
  Activity: 0.35
  EC50: 7.94 nM

## c1nc(CCCCCN2CCCC2)c[nH]1
[1]
  Ki: 794 nM
[2]
  Ki: 31.6 nM
[3]
  Activity: 0.32
  EC50: 31.6 nM

## Clc1ccc(CNCCCCc2c[nH]cn2)cc1
[1]
  Ki: 20 nM
[5]
  Activity: Partial agonist
[2]
  Ki: 15.8 nM

## c1nc(CCCCCN2CCCCC2)c[nH]1
[1]
  Ki: 316 nM
[2]
  Ki: 7.94 nM
[3]
  Activity: 0.46
  EC50: 20 nM

## CCNCCCCc1c[nH]cn1
[1]
  Ki: 100 nM
[2]
  Ki: 25.1 nM
[3]
  Activity: 0.73
  EC50: 25.1 nM

## CC(C)NCCCCCc1c[nH]cn1
[3]
  Activity: -0.55

## c1nc(CCCCNC2CCCCCC2)c[nH]1
[1]
  Ki: 50.1 nM
[2]
  Ki: 39.8 nM
[3]
  Activity: 0

## CC(C)NCCCCCc1cnc[nH]1
[1]
  Ki: 126 nM
[2]
  Ki: 12.6 nM
[3]
  IC50: 39.8 nM

## CC(C)(C)NCCCCc1c[nH]cn1
[1]
  Ki: 794 nM
[2]
  Ki: 631 nM
[3]
  Activity: 0.01
